According to ChEMBL document CHEMBL3885861, “Open TG-GATES”:

Species on record: Rattus norvegicus
Test: Open TG-GATES - Regimen: Single
Format: toxicity, organism-based, Sprague-Dawley
Set-up: regimen Single, gender Male, age 6 weeks
Settings: in vivo, po, route gavage; for gamma-GTP / ALP / ALT / AST / BUN / CRE / Ca / Cl / DBIL / GLC / IP / K / LDH / Na / PL / RALB / TBIL / TC / TG / TP: tissue Plasma; for APTT / Bas / Eos / Fbg / Hb / Ht / Lym / MCH / MCHC / Mono / Neu / Plat / RBC / Ret / WBC: tissue Blood; for KIDNEY_L / KIDNEY_R / KIDNEY_TOTAL: tissue Kidney; for LIVER: tissue Liver
[1] = 10 mg/kg, 3 h, dose level Middle
[2] = 10 mg/kg, 6 h, dose level Middle
[3] = 10 mg/kg, 9 h, dose level Middle
[4] = 10 mg/kg, 24 h, dose level Middle

O=C(CCCN1CCC(O)(c2ccc(Cl)cc2)CC1)c1ccc(F)cc1 [HALOPERIDOL]
gamma-GTP (3 mg/kg, 24 h, dose level Low): 1.6 IU/L | TERMINAL_BW [1]: 204.5 g | APTT [1]: 17.3 s | Bas [1]: 0% | Eos [1]: 0.4% | Fbg [1]: 202.4 mg/dL | Hb [1]: 13.2 g/dL | Ht [1]: 39.7% | Lym [1]: 71.2% | MCH [1]: 22 pg | MCHC [1]: 33.1% | Mono [1]: 12% | Neu [1]: 16.4% | Plat [1]: 97.9 x10_4/uL | RBC [1]: 598.8 x10_4/ul | Ret [1]: 8.8% | WBC [1]: 87.7 x10_2/uL | KIDNEY_L [1]: 0.9 g | KIDNEY_R [1]: 1 g | KIDNEY_TOTAL [1]: 1.9 g | LIVER [1]: 9.9 g | ALP [1]: 802.2 IU/L | ALT [1]: 36 IU/L | AST [1]: 59.8 IU/L | BUN [1]: 11.6 mg/dL | CRE [1]: 0.6 mg/dL | Ca [1]: 10.8 mg/dL | Cl [1]: 107 meq/L | DBIL [1]: 0.02 mg/dL | GLC [1]: 216.2 mg/dL | IP [1]: 10.1 mg/dL | K [1]: 4.5 meq/L | LDH [1]: 107.4 IU/L | Na [1]: 140 meq/L | PL [1]: 141.2 mg/dL | RALB [1]: 3.5 g/dL | TBIL [1]: 0.3 mg/dL | TC [1]: 80.8 mg/dL | TG [1]: 30 mg/dL | TP [1]: 5.5 g/dL | gamma-GTP [1]: 1.2 IU/L | TERMINAL_BW [2]: 201.2 g | APTT [2]: 16.6 s | Bas [2]: 0% | Eos [2]: 0.8% | Fbg [2]: 201.2 mg/dL | Hb [2]: 13.8 g/dL | Ht [2]: 41.9% | Lym [2]: 69.8% | MCH [2]: 21.6 pg | MCHC [2]: 32.9% | Mono [2]: 5.5% | Neu [2]: 24% | Plat [2]: 99.7 x10_4/uL | RBC [2]: 637.2 x10_4/ul | Ret [2]: 8.6% | WBC [2]: 75.3 x10_2/uL | KIDNEY_L [2]: 0.9 g | KIDNEY_R [2]: 1 g | KIDNEY_TOTAL [2]: 1.9 g | LIVER [2]: 8.9 g | ALP [2]: 922.8 IU/L | ALT [2]: 31.8 IU/L | AST [2]: 56.5 IU/L | BUN [2]: 8.8 mg/dL | CRE [2]: 0.4 mg/dL | Ca [2]: 10.4 mg/dL | Cl [2]: 107.2 meq/L | DBIL [2]: 0.025 mg/dL | GLC [2]: 189.2 mg/dL | IP [2]: 10.2 mg/dL | K [2]: 4.7 meq/L | LDH [2]: 111 IU/L | Na [2]: 139.5 meq/L | PL [2]: 130.5 mg/dL | RALB [2]: 3.5 g/dL | TBIL [2]: 0.4 mg/dL | TC [2]: 75.2 mg/dL | TG [2]: 29.5 mg/dL | TP [2]: 5.5 g/dL | gamma-GTP [2]: 1.2 IU/L | TERMINAL_BW [3]: 195.8 g | APTT [3]: 17 s | Bas [3]: 0% | Eos [3]: 0.4% | Fbg [3]: 210 mg/dL | Hb [3]: 13.9 g/dL | Ht [3]: 41.8% | Lym [3]: 75.8% | MCH [3]: 21.8 pg | MCHC [3]: 33.4% | Mono [3]: 7.8% | Neu [3]: 16% | Plat [3]: 101.8 x10_4/uL | RBC [3]: 641.2 x10_4/ul | Ret [3]: 8.6% | WBC [3]: 63.2 x10_2/uL | KIDNEY_L [3]: 0.9 g | KIDNEY_R [3]: 0.9 g | KIDNEY_TOTAL [3]: 1.7 g | LIVER [3]: 8.4 g | ALP [3]: 812.8 IU/L | ALT [3]: 27.8 IU/L | AST [3]: 53.8 IU/L | BUN [3]: 9.2 mg/dL | CRE [3]: 0.6 mg/dL | Ca [3]: 10.1 mg/dL | Cl [3]: 107 meq/L | DBIL [3]: 0.024 mg/dL | GLC [3]: 200.2 mg/dL | IP [3]: 11.1 mg/dL | K [3]: 4.6 meq/L | LDH [3]: 100 IU/L | Na [3]: 139.6 meq/L | PL [3]: 134.2 mg/dL | RALB [3]: 3.7 g/dL | TBIL [3]: 0.4 mg/dL | TC [3]: 76.4 mg/dL | TG [3]: 25.8 mg/dL | TP [3]: 5.5 g/dL | gamma-GTP [3]: 2.6 IU/L | TERMINAL_BW [4]: 213.1 g | APTT [4]: 16.2 s | Bas [4]: 0% | Eos [4]: 1.2% | Fbg [4]: 193.4 mg/dL | Hb [4]: 14.2 g/dL | Ht [4]: 42.4% | Lym [4]: 82% | MCH [4]: 21.9 pg | MCHC [4]: 33.5% | Mono [4]: 6.8% | Neu [4]: 10% | Plat [4]: 114.7 x10_4/uL | RBC [4]: 648 x10_4/ul | Ret [4]: 8.2% | WBC [4]: 76.5 x10_2/uL | KIDNEY_L [4]: 1 g | KIDNEY_R [4]: 0.9 g | KIDNEY_TOTAL [4]: 1.9 g | LIVER [4]: 10.5 g | ALP [4]: 1019.6 IU/L | ALT [4]: 32.6 IU/L | AST [4]: 62.2 IU/L | BUN [4]: 23.8 mg/dL | CRE [4]: 0.5 mg/dL | Ca [4]: 11.2 mg/dL | Cl [4]: 104.6 meq/L | DBIL [4]: 0.034 mg/dL | GLC [4]: 182.4 mg/dL | IP [4]: 8.2 mg/dL | K [4]: 5 meq/L | LDH [4]: 102.4 IU/L | Na [4]: 140 meq/L | PL [4]: 160.2 mg/dL | RALB [4]: 3.9 g/dL | TBIL [4]: 0.3 mg/dL | TC [4]: 79.8 mg/dL | TP [4]: 6 g/dL | gamma-GTP [4]: 1 IU/L
